Where a name gives a salt, the structure may show the parent alone.
Legend:
[1] = test system: epinephrine-induced increase in blood-pressure (anti-α effect); assay: Antiadrenergic properties: anti-α effect (reduction of epinephrine-induced hypertension); type: in vivo; set-up: key to anti-α effect: +: for a reduction < 50%; ++: for a reduction ≥ 50%; +++: for a reduction sub-total (almost complete reduction); conditions: dog; for inhibition in vivo at 10 mg/kg: 10 mg/kg i.v., known compounds
Experimental: (§1) The object of this test is to determine the capacity of the compounds of the invention for reducing the increase in epinephrine-induced increase in blood-pressure (anti-α effect) and the isoprenaline-induced acceleration in heart rate (anti-β effect), in dogs previously anaesthatized with pentobarbital and atropinized. For each dog, the dose of epinephrine (between 3 and 10 μg/kg) which induced a reproducible increase in the blood-pressure of approximately 133×10^2 Pa and the dose of isoprenaline (1 to 2 μg/kg) which induced a reproducible increase in the heart rate of approximately 70 beats/min. were first determined. The dose of epinephrine and of isoprenaline, determined in this manner, were injected alternately every ten minutes and, after two successive reference responses had been obtained, an amount of the test compound was administered intravenously. The percentage reduction in the hypertension induced by the test compound compared with the reference hypertension previously obtained (approximately 100 mm Hg) was recorded. In both cases, the results of the reduction in blood-pressure or in the heart rate have been expressed as follows: […]

[2] = test system: isoprenaline-induced acceleration in heart rate (anti-β effect); assay: Antiadrenergic properties: anti-β effect (reduction of isoprenaline-induced tachycardia); type: in vivo; set-up: key to anti-β effect: +: for a reduction < 50%; ++: for a reduction ≥ 50%; +++: for a reduction sub-total (almost complete reduction); conditions: dog; for inhibition in vivo at 10 mg/kg: 10 mg/kg i.v., known compounds; for inhibition in vivo at 0.5 mg/kg: 0.5 mg/kg i.v.
Experimental: as §1, with “the acceleration of the heart rate” for “the hypertension”, “reference tachycardia measured” for “reference hypertension”, “previously” for “previously obtained”, “(approximately 70 beats)” for “(approximately 100 mm Hg)”

isolated rat aorta = assay: Calcium inhibitory properties: contractile response to potassium-induced depolarization on isolated rat aorta; set-up: species or system isolated organ, male Wistar rats; conditions: Rattus norvegicus, 1 h, read-out: % of the maximum contractional effect; for activity at 1 µM: 10^-6 M; for activity at 0.1 µM: 10^-7 M; for activity at 0.01 µM: 10^-8 M; for activity at 0.001 µM: 10^-9 M
Procedure, shortened: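 Contraction is expressed as % of the pre-incubation maximum, measured after a 60 min compound exposure and a fresh K+ (100 mM KCl) depolarization. Tissue: aortic strips from male Wistar rats, 2 g tension, modified Krebs-bicarbonate, 37° C, CO2/O2 gassed.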

[3] = Canis lupus familiaris, iv, 0.5 mg/kg i.v.
[4] = Canis lupus familiaris, iv, 5 mg/kg i.v.
[5] = Canis lupus familiaris, iv, 1 mg/kg i.v.
[6] = Canis lupus familiaris, iv, 0.1 mg/kg i.v.
[7] = Canis lupus familiaris, iv, 0.3 mg/kg i.v.

Row | Structure (SMILES) | activity at 1 µM (isolated rat aorta) [%] | activity at 0.1 µM (isolated rat aorta) [%] | activity at 0.01 µM (isolated rat aorta) [%] | activity at 0.001 µM (isolated rat aorta) [%] | also measured
1 | CCCCN(CCCC)CCCOc1c(C)cc(C(=O)c2c(CC)cn3ccccc23)cc1C [Compound D, reference compound] | 19.3 | 64.7 | – | – | inhibition in vivo at 10 mg/kg ([1]; Canis lupus familiaris, iv): < 50%; inhibition in vivo at 10 mg/kg ([2]; Canis lupus familiaris, iv): < 50%
2 | CCCN(CCC)CCCOc1ccc(C(=O)c2c(CC)cn3ccccc23)cc1 [Compound E, reference compound] | 37.9 | 89.1 | – | – | inhibition in vivo at 10 mg/kg ([1]; Canis lupus familiaris, iv): < 50%; inhibition in vivo at 10 mg/kg ([2]; Canis lupus familiaris, iv): ≥ 50%
3 | CCCCN(CCCC)CCCOc1ccc(S(=O)(=O)c2c(C(C)C)cn3ccccc23)cc1 [Ex. 1, 2-isopropyl-1-{4-[3-(di-n-butylamino)propyloxy]benzenesulphonyl}indolizineoxalate] | 2 | 18.9 | 61 | – | inhibition in vivo at 0.5 mg/kg [1, 3]: ≥ 50%; inhibition in vivo at 0.5 mg/kg ([2]; Canis lupus familiaris, iv): ≥ 50%
4 | CCc1cn2ccccc2c1S(=O)(=O)c1ccc(OCCCN2CCCCC2)cc1.Cl [Ex. 2, 2-ethyl-1-[4-(3-piperidinopropyloxy)benzenesulphonyl]indolizine hydrochloride] | 22.6 | 79.8 | – | – | anti-α effect ([1]; 5 mg/kg i.v.): +++; inhibition in vivo at 5 mg/kg [2, 4]: ≥ 50%
5 | CCCCN(CCCC)CCCOc1ccc(S(=O)(=O)c2c(CC)cn3ccccc23)cc1 [Ex. 8, 2-Ethyl-1-{4-[3-(di-n-butylamino)propyloxy]benzenesulphonyl}indolizine hydrochloride] | – | 30.9 | – | – | inhibition in vivo at 0.5 mg/kg [1, 3]: ≥ 50%; inhibition in vivo at 0.5 mg/kg ([2]; Canis lupus familiaris, iv): < 50%
6 | CCCCc1cn2ccccc2c1S(=O)(=O)c1ccc(OCCCN(CCC)CCC)cc1.O=C(O)C(=O)O [Ex. 12, 2-n-Butyl-1-{4-[3-(di-n-propylamino)propyloxy]benzenesulphonyl}indolizine oxalate] | 36.3 | – | – | – | inhibition in vivo at 5 mg/kg [1, 4]: ≥ 50%; anti-β effect ([2]; 5 mg/kg i.v.): +++
7 | CC(C)c1cn2ccccc2c1S(=O)(=O)c1ccc(OCCCN(C)C)cc1 [Ex. 14, 2-Isopropyl-1-{4-[3-(dimethylamino)propyloxy]benzenesulphonyl}indolizine] | 32.6 | – | – | – | anti-α effect ([1]; 2.5 mg/kg i.v.): +++; anti-β effect ([2]; 2.5 mg/kg i.v.): +++
8 | CCN(CC)CCCOc1ccc(S(=O)(=O)c2c(C(C)C)cn3ccccc23)cc1 [Ex. 15, 2-Isopropyl-1-{4-[3-(diethylamino)propyloxy]benzenesulphonyl}indolizine] | 18.4 | 71.2 | – | – | anti-α effect ([1]; 2.5 mg/kg i.v.): +++; anti-β effect ([2]; 2.5 mg/kg i.v.): +++
9 | CCCN(CCC)CCCOc1ccc(S(=O)(=O)c2c(C(C)C)cn3ccccc23)cc1 [Ex. 17, 2-Isopropyl-1-{4-[3-(di-n-propylamino)propyloxy]benzenesulphonyl}indolizineoxalate] | 7.4 | 50.4 | – | – | anti-α effect ([1]; 1.3 mg/kg i.v.): +++; inhibition in vivo at 1.3 mg/kg ([2]; Canis lupus familiaris, iv, 1.3 mg/kg i.v.): ≥ 50%
10 | CCCCN(C)CCCOc1ccc(S(=O)(=O)c2c(CC)cn3ccccc23)cc1.O=C(O)C(=O)O [Ex. 20, 2-Ethyl-1-{4-[3-(N-methyl-N-butylamino)propyloxy]benzenesulphonyl}indolizine oxalate] | 6.8 | 60 | – | – | anti-α effect ([1]; 5 mg/kg i.v.): +++; anti-β effect ([2]; 5 mg/kg i.v.): +++
11 | CCCCNCCCOc1ccc(S(=O)(=O)c2c(CC)cn3ccccc23)cc1.O=C(O)C(=O)O [Ex. 21, 2-Ethyl-1-{4-[3-(n-butylamino)propyloxy]benzenesulphonyl}indolizine oxalate] | 8.3 | 74.7 | – | – | anti-α effect ([1]; 5 mg/kg i.v.): +++; anti-β effect ([2]; 5 mg/kg i.v.): +++
12 | CCCCN(CCCC)CCCCOc1ccc(S(=O)(=O)c2c(CC)cn3ccccc23)cc1 [Ex. 23, 2-Ethyl-1-{4-[4-(di-n-butylamino)butyloxy]benzenesulphonyl}indolizine hemioxalate] | – | 24.1 | 77.8 | – | anti-α effect ([1]; 1 mg/kg i.v.): +++; anti-β effect ([2]; 1 mg/kg i.v.): +++
13 | CCCCCN(CCCCC)CCCOc1ccc(S(=O)(=O)c2c(CC)cn3ccccc23)cc1.Cl [Ex. 26, 2-Ethyl-1-{4-[3-(di-n-pentylamino)propyloxy}benzenesulphonyl}indolizine hydrochloride] | – | 42.9 | 82.9 | – | anti-α effect ([1]; 0.5 mg/kg i.v.): +++; inhibition in vivo at 0.5 mg/kg ([2]; Canis lupus familiaris, iv): ≥ 50%
14 | CCc1cn2ccccc2c1S(=O)(=O)c1ccc(OCCCNCCc2ccc(OC)c(OC)c2)cc1 [Ex. 27, 2-Ethyl-1-{4-}3-(3,4-dimethoxy-β-phenethylamino)propyloxy]benzenesulphonyl}indolizine oxalate] | – | 7.7 | 58.9 | 81.6 | anti-α effect ([1]; 1 mg/kg i.v.): +++; inhibition in vivo at 1 mg/kg [2, 5]: ≥ 50%
15 | CCCCc1cn2ccccc2c1S(=O)(=O)c1ccc(OCCCNC(C)(C)C)cc1.O=C(O)C(=O)O [Ex. 29, 2-n-Butyl-1-{4-[3-(tert-butylamino)propyloxy]benzenesulphonyl}indolizine oxalate] | 30.7 | – | – | – | anti-α effect ([1]; 5 mg/kg i.v.): +++; inhibition in vivo at 5 mg/kg [2, 4]: ≥ 50%
16 | COc1ccc(CCN(C)CCCCOc2ccc(S(=O)(=O)c3c(C(C)C)cn4ccccc34)cc2)cc1OC [Ex. 42, 2-Isopropyl-1-[4-{4-[N-methyl-N-(3,4-dimethoxy-β-phenethyl)amino]butyloxy]benzenesulphonyl]indolizine] | – | 21.1 | 53.9 | 78.8 | anti-α effect ([1]; 0.1 mg/kg i.v.): +++; anti-β effect ([2]; 0.1 mg/kg i.v.): +++
17 | COc1ccc(CNCCCOc2ccc(S(=O)(=O)c3c(C(C)C)cn4ccccc34)cc2)cc1OC [Ex. 43, 2-Isopropyl-1-{4-[3-(3,4-dimethoxybenzylamino)propyloxy]benzenesulphonyl}indolizine] | – | 9.7 | 58.4 | 88.7 | anti-α effect ([1]; 0.2 mg/kg i.v.): +++; anti-β effect ([2]; 0.2 mg/kg i.v.): +++
18 | CCCCN(CCCOc1ccc(S(=O)(=O)c2c(C(C)C)cn3ccccc23)cc1)CCc1ccc(OC)c(OC)c1 [Ex. 45, 2-Isopropyl-1-[4-{3-[N-n-butyl-N-(3,4-dimethoxy-β-phenethyl)amino]propyloxy}benzenesulphonyl]indolizine acid oxalate] | – | 18.7 | 62.3 | 80.7 | inhibition in vivo at 0.1 mg/kg [1, 6]: ≥ 50%; inhibition in vivo at 0.1 mg/kg [2, 6]: ≥ 50%
19 | COc1cccc(CCN(C)CCCOc2ccc(S(=O)(=O)c3c(C(C)C)cn4ccccc34)cc2)c1 [Ex. 46, 2-Isopropyl-1-[4-{3-[N-methyl-N-(3-methoxy-β-phenethyl)amino]propyloxy}benzenesulphonyl]indolizine acid oxalate] | – | 4.3 | 49.5 | 78.1 | anti-α effect ([1]; 0.1 mg/kg i.v.): +++; anti-β effect ([2]; 0.1 mg/kg i.v.): +++
20 | COc1ccc(CCN(C)CCCOc2ccc(S(=O)(=O)c3c(C(C)C)cn4ccccc34)cc2)cc1 [Ex. 47, 2-Isopropyl-1-[4-{3-[N-methyl-N-(4-methoxy-β-phenethyl)amino]propyloxy}benzenesulphonyl]indolizine acid oxalate] | – | 17.9 | 69.6 | 86.5 | inhibition in vivo at 0.3 mg/kg [1, 7]: ≥ 50%; inhibition in vivo at 0.3 mg/kg [2, 7]: < 50%
21 | CCCCN(CCCC)CC(O)COc1ccc(S(=O)(=O)c2c(C(C)C)cn3ccccc23)cc1.Cl (centres unmarked) [Ex. 49, 2-isopropyl-1-{4-[3-(di-n-butylamino)-2-hydroxypropyloxy]-benzenesulphonyl}indolizine hydrochloride] | 5.4 | 12.8 | 67.6 | 80.2 | anti-α effect ([1]; 1 mg/kg i.v.): +++; inhibition in vivo at 1 mg/kg [2, 5]: ≥ 50%

— patent publication US5147878A, “Aminoalkoxyphenyl derivatives, process of preparation and compositions containing the same” (Sanofi, priority 1986, dated 1992)
